Data as given in patent US7090853B2, “Noscapine derivatives as adjuvant compositions and methods of use thereof” (Emory University, priority 1999, dated 2006).

What was measured:
EL4 thymocytes = assay: M phase arrest, alpha-tubulin immunofluorescence and flow cytometry; format: cell-based; conditions: thymocyte cells, 20 μM Noscapine, 24 hr
Method: (§1) Hela cells were grown in DMEM supplemented with 10% fetal calf serum, 1 mM L-glutamine and 1% penicillin/−streptomycin. The tumor cell line E.G7-OVA (H-2^b) [Moore, M. W., et al., Cell 54,777 (1988)] was grown in RPMI 1640 with 10% fetal calf serum, 1% sodium pyruvate, 1 mM L-glutamine, 0.1% gentamycin, 50 μM β-mercaptoethanol. Cells were grown at 37° C. in a 5% CO2 atmosphere. Cell viability was assessed by trypan blue exclusion analysis. Cell numbers were determined using a hemacytometer. C57BL/6(H-2^b) mice, 8 to 12 weeks of age, were obtained from Harian Sprague Dawley, Inc. (Indiananapolis, Ind.). Mice were maintained on standard laboratory chow and water ad libitum in a temperature and light controlled environment. For immunofluorescence, both Hela and thymocyte cells were treated identically except the Hela cells were grown onto glass coverslips while EL4 thymocytes were put on glass coverslips after fixation. Cells in 10 ml medium were incubated with 2 μl DMSO or 20 μM Noscapine (2 μl 0.1 M DMSO solution) respectively. After 24 hr, cells were fixed with cold (−20° C.) methanol for 5 min., then rehydrated by PBS for 1 min. Nonspecific sites were blocked by incubating with 200 μl of 1% bovine serum albumin (BSA) in phosphate buffered saline (PBS) at 37° C. for 15 minutes. […] Cells were examined with a fluorescence microscope. […] The samples were read on a cytometer.

Hela cells = assay: as above; format: cell-based; conditions: 20 μM Noscapine, 24 hr
Method: as §1

human bladder tumors = conditions: nude mice; cited from earlier work
solid lymphoid tumors = assay: Apoptosis in solid lymphoid tumors induced in mice (H&E microscopy); format: in vivo; conditions: Haemotoxline and Eosine stained cells
bovine brain tubulin = bovine brain tubulin (Bos taurus, UniProt P81947+Q6B856); assay: Microtubule assembly, turbidity at 350 nm; format: biochemical; conditions: 20 μM noscapine, G-PEM buffer, 37° C.
bovine brain tubulin, sequence (P81947 whole entry): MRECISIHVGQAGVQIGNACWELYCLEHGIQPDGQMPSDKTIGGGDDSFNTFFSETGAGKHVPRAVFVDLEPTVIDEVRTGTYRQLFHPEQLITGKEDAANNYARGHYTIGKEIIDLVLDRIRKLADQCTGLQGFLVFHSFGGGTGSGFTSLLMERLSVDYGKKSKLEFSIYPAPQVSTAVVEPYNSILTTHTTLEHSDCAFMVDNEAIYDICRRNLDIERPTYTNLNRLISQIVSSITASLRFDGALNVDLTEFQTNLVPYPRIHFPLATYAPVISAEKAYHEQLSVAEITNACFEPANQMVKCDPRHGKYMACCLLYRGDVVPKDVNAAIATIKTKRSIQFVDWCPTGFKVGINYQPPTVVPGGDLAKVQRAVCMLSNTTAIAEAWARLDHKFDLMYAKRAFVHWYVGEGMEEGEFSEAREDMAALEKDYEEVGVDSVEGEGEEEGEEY
bovine brain tubulin, sequence (Q6B856 whole entry): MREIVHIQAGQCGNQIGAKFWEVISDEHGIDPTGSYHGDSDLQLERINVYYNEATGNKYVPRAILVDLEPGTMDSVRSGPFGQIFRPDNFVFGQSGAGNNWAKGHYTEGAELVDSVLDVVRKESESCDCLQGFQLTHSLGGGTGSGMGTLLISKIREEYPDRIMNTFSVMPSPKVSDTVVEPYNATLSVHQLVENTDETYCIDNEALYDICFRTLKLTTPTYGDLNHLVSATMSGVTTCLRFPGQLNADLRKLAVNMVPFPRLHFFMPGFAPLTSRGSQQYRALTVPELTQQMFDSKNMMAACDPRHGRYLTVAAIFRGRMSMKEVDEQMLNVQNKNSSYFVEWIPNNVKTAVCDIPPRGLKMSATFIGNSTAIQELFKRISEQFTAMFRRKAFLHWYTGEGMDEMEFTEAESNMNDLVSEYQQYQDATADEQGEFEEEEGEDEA
Method: Phosphocellulose purified bovine brain tubulin was employed throughout these biophysical experiments. Fluorescence titration for determining binding constants was performed according to Peyrot, V. et al., Biochemistry 31, 11125 (1992). […], at room temperature, 2 μM tubulin in 100 mM PIPES, 2 mM EGTA, 1 mM MgCl2 was excited at 278 nm, and the fluorescence emission spectra were recorded with bandwidths […]. The fluorescence emission intensity of noscapine at this excitation wavelength was negligible and at the concentration of noscapine used it gave no appreciable inner filter effect. The concentration of noscapine was raised in increments of 0.5 μM, until the decrease in the fluorescence intensity was saturated. The value of the dissociation constant and the number of sites were obtained from Scatchard plots using the equation, r/[L]free=n/K^d−r/Kd, where r is the ratio of the concentration of bound ligand to the total protein concentration and n is the number of binding sites. […] Microtubule assembly was recorded on a spectrophotometer with thermocontroler, The cuvettes (0.4 cm path) containing 100 mM PIPES, 2 mM EGTA, 1 mM MgCl2 and 1 mM GTP (G-PEM buffer), and 20 μM noscapine/DMSO were kept at room temperature before addition of tubulin and shifting to 37° C. […] The assembly was monitored by measuring the changes in turbidity at […]. intervals. […]

human breast tumors = conditions: nude mice; cited from earlier work

## COc1ccc2c(c1OC)C(=O)O[C@@H]2[C@H]1c2c(cc3c(c2OC)OCO3)CCN1C [Noscapine]
EL4 thymocytes
  M phase arrest of microtubule arrays: arrested in M phase
Hela cells
  M phase arrest of microtubule arrays: arrested in M phase
Human bladder tumors
  regression of human bladder tumors: caused regression
Solid lymphoid tumors
  apoptotic morphologies in tumor cells: many cells in noscapine treated mice with apoptotic morphologies
Bovine brain tubulin
  tubulin assembly (absorbance at 350 nm): promotes tubulin assembly
Human breast tumors
  regression of human breast tumors: caused regression
